Data set [1] concerns SKOV3 cells (wildtype, drug sensitive human ovarian cancer cell line). Briefly: In-vitro cytotoxicity, MTS (formazan) assay, 6-day treatment. Format: cell-based. To be noted: 6 days. As for the experimental part:
(§1) In in-vitro cytotoxicity studies, the wildtype (drug sensitive (DS)) human ovarian cancer cell line SKOV3 was maintained in culture alongside an SKOV3TR subculture that was selected for multi-drug resistance in the presence of increasing concentrations of PTX. For cytotoxicity studies, 96-well plates were prepared with each cell type seeded at 5000 cells/well. The DS and MDR cells were subjected to dose-response studies against PTX, CER and PTX combined with CER, delivered as free drugs in solution or delivered in PEO-PCL nanoparticles. All studies were performed alongside a negative control (cell growth medium), a positive control (polyethyleneimine, PEI), and proper vehicle controls. Since PTX is a cell-cycle dependant chemotherapeutic, all treatments were left to proceed undisturbed for 6 days, allowing ample time for all cells to enter mitosis. Resulting cell death/viability was measured by the MTS (formazan) assay.

For data set [2], the system named is SKOV3TR cells (multi-drug resistant, PTX-selected subculture of SKOV3). Briefly: cells. The data set is classed as cell-based, human. The procedure:
as §1

The viability is the share of living cells, or the viability signal relative to a control. As a reminder, the IC50 is the midpoint of a concentration-inhibition curve.

Values joined by “and” are separate entries in the source; they are usually repeats but may differ in a detail not shown here. Equal entries are not always repeated.

Take `CCCCCCCCCCCCC/C=C/[C@@H](O)[C@H](CO)NC(=O)CCCCC` [CER, C6-ceramide]: the percent cell viability in data set [1] (SKOV3, CER alone 10 μM in solution, p<0.05) is 75.08±7.86%; in data set [2] (CER alone 20 μM in solution, 6 days), 91.18±7.61% and 91.2±7.6%.

In the case of `CC(=O)O[C@H]1C(=O)[C@@]2(C)[C@H]([C@H](OC(=O)c3ccccc3)[C@]3(O)C[C@H](OC(=O)[C@H](O)[C@@H](NC(=O)c4ccccc4)c4ccccc4)C(C)=C1C3(C)C)[C@]1(OC(C)=O)CO[C@@H]1C[C@@H]2O` [PTX, Paclitaxel], the viability at 0.001 µM in data set [1] (Homo sapiens, SK-OV-3, 144 h, SKOV3, 1 nM PTX in solution, read-out: percent cell viability (cells survived)) was 76 ± 5.92%. The viability at 0.1 µM in data set [1] (Homo sapiens, SK-OV-3, 144 h, SKOV3, 100 nM PTX in solution, read-out: percent cell viability (cells survived)) was 16.4 ± 0.41%; in data set [2] (Homo sapiens, 144 h, 100 nM PTX in solution, 6 days, read-out: percent cell viability), 100 ± 5.78%. For the same compound, the IC50 in data set [1] (Homo sapiens, SK-OV-3, 144 h, SKOV3, free drug in solution, read-out: IC50 of drug sensitive (SKOV3) cells to PTX in solution) is ~5 nM. For the same compound, in data set [2] (10 nM PTX), the “percent of MDR cells survived” value is recorded as 100%. In data set [2] (1 μM PTX in solution, 6 days), this compound gave a percent cell viability of 65.6±2.2%. The viability at 1 µM in data set [2] (Homo sapiens, 144 h, 1 μM PTX in solution, 6 days, read-out: percent cell viability) came out at 65.7 ± 2.16%.
